These results are taken from ChEMBL document CHEMBL1201862, “PubChem BioAssay data set” (2004).

Some test systems named below: TK-10; NCI/ADR-RES; HCC 2998; HCT-116; A498; PC-3; IGROV-1; MDA-N; UACC-62; Malme-3M; SK-MEL-2; SW-620; COLO 205; HOP-92; MDA-MB-435; OVCAR-3; CCRF-CEM; LOX IMVI; DU-145; HT-29.
Holding throughout (experiment): NCI-60 cell line screen, 48 h

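Five concentrations, 48 hours, 96-well plates. Here, GI50 denotes the concentration required for 50% inhibition of growth.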 Activity calls are given as the source filed them. No stated cut-off is given here; in the data, active = GI50 up to about 1.1 µM and inactive = higher.

For the compound `c1ccc(C2=NN=C3C(c4ccccc4)=Nc4ccccc4N3C2)cc1`, the GI50 was 5080 nM (inactive) with TK-10; 14700 nM (inactive) with NCI/ADR-RES; 22400 nM (inactive) with HCC 2998; 10800 nM (inactive) in the assay with HCT-116; > 80200 nM (inactive) in the assay with A498; 21500 nM (inactive) with PC-3. For the same compound, the GI50 in the assay on IGROV-1 was 26500 nM (inactive); in the assay with MDA-N, 31300 nM (inactive); in the assay on UACC-62 it was 30300 nM (inactive); with Malme-3M, 26000 nM (inactive); in the assay with SK-MEL-2, 23500 nM (inactive); in the assay on SW-620, 10500 nM (inactive). In addition, the GI50 was 20500 nM (inactive) in the assay with COLO 205; 29300 nM (inactive) with HOP-92; 17700 nM (inactive) in the assay on MDA-MB-435; 3370 nM (inactive) in the assay with OVCAR-3; 1690 nM (inactive) with CCRF-CEM; 10000 nM (inactive) in the assay on LOX IMVI. Besides, the GI50 in the assay with DU-145 was 7940 nM (inactive); with HT-29, 23300 nM (inactive).
For the compound `CC1(C)COC2=C(C1)C(=O)c1ccccc1C2=O`, the GI50 is 1700 nM (inactive) in the assay on TK-10; 452 nM (active) in the assay on NCI/ADR-RES; 1700 nM (inactive) in the assay with HCC 2998; 449 nM (active) with HCT-116; 2100 nM (inactive) with A498; 1550 nM (inactive) with PC-3. For the same compound, the GI50 with IGROV-1 is 1650 nM (inactive); in the assay on MDA-N, 182 nM (active); with UACC-62, 1090 nM (active); with Malme-3M, 1880 nM (inactive); in the assay with SK-MEL-2 it was 1910 nM (inactive); in the assay with SW-620, 1690 nM (inactive). Further, the GI50 was 2200 nM (inactive) with COLO 205; 2300 nM (inactive) in the assay on HOP-92; 195 nM (active) with MDA-MB-435; 750 nM (active) in the assay on OVCAR-3; 2370 nM (inactive) in the assay on CCRF-CEM; 1880 nM (inactive) in the assay with LOX IMVI. The GI50 was 1640 nM (inactive) in the assay with DU-145 and 2530 nM (inactive) in the assay on HT-29.
